Results on two molecules are retold here after patent publication US20210214341A1, “SUBSTITUTED PYRIDINYL AZETIDINONE DERIVATIVES FOR USE IN TREATING CANCER AND OTHER DISEASES” (The Board of Regents of the University of Texas System, priority 2018, published 2021).

Read-outs that look alike come from different tables or passages of the source.

In one test the test system is CaPan-2. As to the kind of experiment: Cytotoxicity IC50 in CaPan-2 cells. It is filed as cell-based. Particulars: Homo sapiens; CaPan-2 cell line; read-out: IC50 (mean ± standard error). From the text: (§1) B. Cytotoxicity Studies: Determination of IC50 Values (Single Run) in Capan-2, HPAC. HPAF-II, and HS766T Cell Lines
(§2) Capan-2, HPAC. HPAF-H, and HS766T. The compounds A, D, E, G, and H were chosen randomly, out of twelve β-laclam molecules, to carry out this evaluation.

The subject of a further test is HPAC. The experiment in a line: Cytotoxicity IC50 in HPAC cells. Type of test: cell-based. Conditions: Homo sapiens; HPAC cell line; read-out: IC50 (mean ± standard error).
From the text: as §1, §2

The next test relates to HPAF-II. The experiment in a line: Cytotoxicity IC50 in HPAF-II cells. Type of test: cell-based. Particulars: Homo sapiens; HPAF-II cell line; read-out: IC50 (mean ± standard error).
From the text: as §1, §2

A further test deals with HS 766T. The experiment in a line: Cytotoxicity IC50 in HS 766T cells. Particulars: Homo sapiens, Hs766T; HS 766T cell line; read-out: IC50 (mean ± standard error). It is filed as cell-based.
From the text: as §1, §2

Test [1] has as its system pancreatic cancer cells PANC-1 (ATCC CRL-1469). The experiment in a line: SRB (Sulforhodamine B) assay in PANC-1 cells. It is filed as cell-based. Conditions: Homo sapiens, PANC-1; 2D-culture, SRB, 72 hrs, average of 3 runs; read-out: IC50 (PANC-1). As for the experimental part:
(§3) FIGS. 1A-1B show the IC50 curves of the twelve investigational β-lactams in pancreatic cancer cells PANC-1 (ATCC CRL-1469) and normal pancreatic ductal epithelial cells (ATCC CRL-4038). The GraphPad Prism software was used to process the results. The IC50 values were determined by SRB (Sulforhodamine B) assay following standard procedure. PANC-1 cells were plated in 96 well plates and treated with 1, 10, 100, 1000 and 10,000 nM of each of the drugs in triplicate for 72 hrs. Cells were fixed, washed and stained with SRB dye, the stained cells were washed, and the dye solubilized. It was read using a plate reader at 565 nm. The IC50 values were calculated assuming that the 10 μM sample has reached saturation. Following similar way, IC50 values were determined for normal pancreatic ductal epithelial cells.
(§4) As mentioned earlier, PANC-1 is referred to generically as the “gold standard of pancreatic cancers” representing as it does almost total resistance to GEM, the first line treatment currently used in clinical situations. Pancreatic cancer cells PANC-1 (ATCC CRL-1469) and normal pancreatic ductal epithelial cells (ATCC CRL-4038) were used in this study. The GraphPad Prism software was used to process the results. […] Cells were fixed, washed and stained with SRB dye, the stained cells were washed, and the dye solubilized. It was read using a plate reader at 565 nm. The IC50 values were calculated assuming that the 10 μM sample has reached saturation. Following similar way, IC50 values were determined for normal pancreatic ductal epithelial cells.

Test [2] concerns normal pancreatic ductal epithelial cells (ATCC CRL-4038). As to the kind of experiment: SRB (Sulforhodamine B) assay in normal pancreatic ductal epithelial cells. It is filed as cell-based. Particulars: Epithelial cell; 2D-culture, SRB, average of 3 runs; read-out: IC50 (NPC). On the procedure: as §3, §4
In a further test the test system is PANC-1 tumorspheres. As to the kind of experiment: 3D-tumorsphere formation assay. It is filed as cell-based, human. As for the experimental part: Number of tumorspheres formed can be used to distinguish the efficacy of different anticancer drugs in a more physically acceptable method than 2D culture. Based on selectivity and toxicity towards PANC-1 cells in comparison to normal pancreatic ductal epithelial cells (Table D), six compounds (A, B, C, E, F, and G) were chosen for the 3D-tumorsphere formation assay. The assay was carried out by following the protocol developed by Johnson et al., (2013). PANC-1 cells (5000) were plated as single cells in Corning ultra-low attachment 24 well plates in 0.5 ml DMEM+10% FBS. The cells were grown in a humidified atmosphere of 5% CO2 for 168 hrs. 0.1 ml Media was added on 72nd and 144 hrs. The β-lactams were dissolved in DMSO and maintained at −20° C. On the day of assay, on the addition of media, the drugs were freshly diluted in media. The final concentrations of drugs were 0, 1 nM, 10 nM, 100 nM, 1 uM, 10 μM. After 144 hours the total number tumorspheres that were larger than 100 micrometers were counted in a field of 1 mm×1 mm at 10× magnification in a bright field microscope. The data was plotted and the IC50 value was calculated.
3D-tumorsphere formation assay is considered to be a fast and economical intermediary step between in vitro and in vivo biological evaluations. A tumorsphere is a solid, spherical formation developed from the proliferation of a single cancer stem/progenitor cell in 3D culture. These cells are easily distinguishable from single or aggregated as they appear to become fused together and individual cells cannot be appearing to become fused together and individual cells cannot be identified. The size can vary from less than 50 micrometers to 250 micrometers. The number of tumorspheres formed can be used to characterize the cancer stem cell population within different in vitro cultured cancer cell lines. The number of tumorspheres formed can also be used to distinguish the efficacy of different anticancer drugs in a more physically acceptable method than 2D culture. Based on selectivity and toxicity towards PANC-1 cells in comparison to normal pancreatic ductal epithelial cells (Table D), six compounds (A, B, C, E, F, and G) were chosen for the 3D-tumorsphere formation assay. The assay was carried out by following the protocol developed by Johnson et al., (2013). […] The below steps were followed to accomplish the assay. • 5000 PANC-1 cells were plated as single cells in Corning ultra-low attachment 24 well plates in 0.5 ml DMEM+10% FBS. • Cells were grown in a humidified atmosphere of 5% CO2 for 168 hrs. 0.1 ml Media was added on 72nd and 144 hrs. • Drugs were dissolved in DMSO and maintained at −20° C. On the day of assay, on the addition of media, the drugs were freshly diluted in media. • The final concentrations of drugs were 0, 1 nM, 10 nM, 100 nM, 1 μM, 10 μM. • After 144 hrs the total number tunorspheres that were larger than 100 micrometers were counted in a field of 1 mm×1 mm at 10× magnification in a bright field microscope. The data was plotted and the IC50 value was calculated.

In the next test the test system is PANC-1 cells. As to the kind of experiment: Flow cytometric cell cycle analysis. Type of test: cell-based, human. Particulars: tested for 24, 48 and 72 hrs. On the procedure: The noise was cleared. […] After 72 hrs all the cells (including floaters) were collected, the adhered cells were trypsinized and collected as well. The cells were then centrifuged in a 50 mL centrifuge tube. The pellet was washed with PBS and reconstituted in 500 μL PBS. The cells were then fixed in ice cold ethanol by adding the ethanol dropwise while gently vortexing the cells. Stored at 4° C. for overnight. The cells were then centrifuged, and the pellet reconstituted in Guava cell cycle reagent and analyzed in a Guava flow cytometer. A similar experiment was conducted with normal pancreatic ductal epithelial cells (NPC) and the drug treatment was done according to the IC50 values observed in the 2D assay conducted on them (Table E). Please note that 2N represents G0/G1 and 4N for G2 phases.
After 72 hrs all the cells (including floaters) were collected, the adhered cells were trypsinized and collected as well. The cells were then centrifuged in a 50 mL centrifuge tube. The pellet was washed with PBS and reconstituted in 500 μL PBS. The cells were then fixed in ice cold ethanol by adding the ethanol dropwise while gently vortexing the cells. […] The cells were then centrifuged, and the pellet reconstituted in Guava cell cycle reagent and analyzed in a Guava flowcytometer. […] First set of data with PANC-1 cells were analyzed by using FlowJo software, the noise was cleared (FIG. 3). […]

The test system of test [3] is pancreatic cancer cells PANC-1 (ATCC CRL-1469). Particulars: cited from earlier work.

In general, IC50 refers to the point on the concentration scale where inhibition reaches its midpoint. `CS(=O)(=O)O[C@@H]1C(=O)N(c2cc3c4ccccc4ccc3c3ccccc23)[C@H]1c1ccc(F)cn1` (racemic) [A, (±)-Trans-N-(chrysen-6-yl)-2-(5-fluoropyridin-2-yl)-4-oxoazetidin-3-yl methanesulfonate]: the concentration for half-maximal inhibition (IC50) with CaPan-2 is more than 10000 nM; in the test with HPAC, more than 10000 nM; with HPAF-II, 980 ± 380 nM; with HS 766T, 240 ± 380 nM; in test [1] it was 21.2 nM; in test [2], 449 nM. Moreover, in the test on PANC-1 tumorspheres (Homo sapiens, tumorspheres larger than 100 micrometers counted after 144 hrs), the IC50 worked out at 18.1 nM. Besides, in the test on PANC-1 tumorspheres, the “activity in 3D-tumorsphere formation assay compared with 2D-culture” value is “higher activity in 3D-tumorphere formation assay than 2D-culture”. For the same molecule, the “time of maximum cell cycle blockage” value in the test with PANC-1 cells worked out at 72 h.
With `CS(=O)(=O)O[C@H]1C(=O)N(c2cc3c4ccccc4ccc3c3ccccc23)C1c1ccccn1` (some centres unmarked) [TX-262], the IC50 in test [3] (TX-262, from Banik et al., WO 2012/103456, read-out: IC50 (PANC-1)) was 430 nM; in [3] (TX-262, read-out: PANC-1 cell lines IC50), 430 nM.
